In patent US20110097773A1, “METHOD FOR PRODUCING BUTANOL USING EXTRACTIVE FERMENTATION” (BUTAMAX(TM) ADVANCED BIOFUELS LLC, priority 2009, published 2011):

Tests used:
S. cerevisiae BY4741 = assay: Biocompatibility of extractants: glucose utilization rate of the microorganism during extraction; type: cell-based, Saccharomyces cerevisiae; conditions: percentage of average value for oleyl alcohol (Comparative Example A); 25 mL extractant/75 mL culture broth, 40 g/L initial isobutanol, 30° C., 8 hours
Method: (§1) Each extractant was contacted with a fermentation medium and isobutanol as described below to determine the partition coefficient of the extractant. The biocompatibility of the extractant was also assessed by determining the glucose utilization rate of the microorganism during the extraction.
The following experimental procedure was used. In these experiments the amount of ethanol depended on the amount of glucose consumption but typical ethanol values were in the range of 10-15 g/L. The presence of ethanol in these concentrations is not expected to impact glucose consumption and the partitioning of butanol into the extractant. Seed shake flasks containing 250 mL of yeast extract/peptone/dextrose (YPD) medium were inoculated with 150 μL of S. cerevisiae BY4741 inoculum and incubated for about 14 hours at 30° C. with shaking at 250 rpm in a table top shaker (Innova 4230, New Brunswick scientific, Edison, N.J.). When the OD600 reached about 0.4, the glucose concentration in the culture broth was analyzed rapidly by a Select Biochemistry Analyzer and extra glucose was added to reach a final concentration of about 25 g/L. The culture broth was divided into 125 mL flasks, each containing 75 mL of the culture broth. After one hour of incubation at 30° C. with shaking at 200 rpm, 3.75 mL of isobutanol was added to each flask in order to bring the initial isobutanol concentration in the aqueous phase to 40 g/L. The incubation of the biphasic fermentation medium comprising an aqueous phase and a butanol-containing organic phase was continued at 30° C. with shaking at 100 rpm for 8 hours. The aqueous and organic phases in each flask were separated by decantation. The aqueous phase was centrifuged (2 minutes on 13,000 rpm with an Eppendorf centrifuge model 5415R) to remove cells and the supernatant analyzed for glucose, ethanol, and isobutanol by HPLC.
Glucose utilization rates were calculated by noting the difference in glucose concentrations between samples and the time between samples and computing a rate accordingly, for example ([glucose]t2−[glucose]t1)/(t2−t1) where t1 refers to a time earlier than t2 and [glucose] means the concentration of glucose.
Comparative Example A was repeated three times and the results averaged. For the extractants of Comparative Examples A-G, the partition coefficient for isobutanol and the glucose utilization rate are expressed below in Table 3 as percentages of the average values determined for oleyl alcohol (Comparative Example A). A value greater than 100% indicates a result which is numerically larger than that for oleyl alcohol. A value less than 100% indicates a result which is numerically smaller than that for oleyl alcohol. A value of 100% indicates a result which is the same as that for oleyl alcohol. As disclosed in US Patent Application Publication No. 2009-0305370 A1, oleyl alcohol performed well in single solvent extractive fermentations for isobutanol production.
(§2) The extractants listed in Table 2 were evaluated using the procedure described above, but with the following modifications. After the culture broth was divided into 125 mL flasks, each containing 75 mL of the culture broth, oleyl alcohol was added as the first solvent to each flask in the amount shown in Table 2.
For the extractants of Examples 1-15, the partition coefficients for isobutanol and the glucose utilization rate are expressed below in Table 3, together with the results for Comparative examples A-G, as percentages of the average values determined for oleyl alcohol (Comparative Example A). A value greater than 100% indicates a result which is numerically larger than that for oleyl alcohol. A value less than 100% indicates a result which is numerically smaller than that for oleyl alcohol. A value of 100% indicates a result which is the same as that for oleyl alcohol.

[1] = Partition coefficient for isobutanol between extractant (organic phase) and fermentation medium (aqueous phase); type: physicochemical; conditions: isobutanol partition coefficient (organic/aqueous) as percentage of average value for oleyl alcohol (Comparative Example A); 40 g/L initial isobutanol, 30° C.
Method: as §1
The following experimental procedure was used. […] When the OD600 reached about 0.4, the glucose concentration in the culture broth was analyzed rapidly by a Select Biochemistry Analyzer and extra glucose was added to reach a final concentration of about 25 g/L. The culture broth was divided into 125 mL flasks, each containing 75 mL of the culture broth. After one hour of incubation at 30° C. with shaking at 200 rpm, 3.75 mL of isobutanol was added to each flask in order to bring the initial isobutanol concentration in the aqueous phase to 40 g/L. The incubation of the biphasic fermentation medium comprising an aqueous phase and a butanol-containing organic phase was continued at 30° C. with shaking at 100 rpm for 8 hours. The aqueous and organic phases in each flask were separated by decantation.
Partition coefficients for the isobutanol distribution between the organic and aqueous phases were calculated from the known amount of isobutanol added to the flask and the isobutanol concentration data measured for the aqueous phase. The concentration of isobutanol in the extractant phase was determined by the mass balance. The partition coefficient was determined as the ratio of the isobutanol concentrations in the organic and the aqueous phases, i.e., Kp=[Isobutanol]Organic phase/[isobutanol]Aqueous phase.
(§3) A value greater than 100% indicates a result which is numerically larger than that for oleyl alcohol. A value less than 100% indicates a result which is numerically smaller than that for oleyl alcohol. A value of 100% indicates a result which is the same as that for oleyl alcohol.
as §2, §3

Structure (SMILES)	% Glucose Utilization Rate (S. cerevisiae BY4741)	% KP [1]
CCCCCCCCCO [Comparative Ex. B, 1-Nonanol]	0%	
CCCCCCCCC=O [Comparative Ex. E, 1-Nonanal]	0%	132.6%
CCCCCCCCCCO [Comparative Ex. F, 1-Decanol]	0%	139.0%
CCCCCCCCCCCCO [Comparative Ex. G, 1-Dodecanol]	84%	
CCCCCCCCCC(C)O (stereo not drawn) [Comparative Ex. D, 2-Undecanol]	0%	139.0%
CCCCCCCCCCCO [Comparative Ex. C, 1-Undecanol]	0%	127.0%
CCCCCCCC/C=C\CCCCCCCCO [Comparative Ex. A, Oleyl Alcohol]	100%	100%
